Patent publication US20100204258A1, “METHODS AND COMPOSITIONS FOR MODULATING INSULIN SECRETION AND GLUCOSE METABOLISM” (The Trustees of Columbia University in the City of New York, priority 2007, published 2010)
“Also recorded” adds a separate entry of the source.

Key:
Lewis rats [1] = test: IPGTT with TBZ, emetine and Compound 6 (FIG. 12); type: in vivo, rat; conditions: single dose 2-3 mg/kg body weight; for area under the curve from IPGTT: separate experiments
Protocol: Experimental animals. All animal studies were conducted as described in Example 1. […] Rats received injections of vehicle alone (10% DMSO in saline) or reserpine (in saline). Animals recovered fully before receiving IPGTT. Blood glucose, insulin, glucagon and intraperitoneal glucose tolerance tests measurements. […] The fasting blood glucose (BG) levels of the rats were measured using an Accu-Check blood glucose monitoring system (Roche Diagnostics, Sommerville, N.J.). Intraperitoneal glucose tolerance tests (IPGTT) were performed in 6 hour fasting un-anaesthetized animals. Briefly, after baseline BG measurements, animals received an intraperitoneal (i.p.) injection of 1 gram glucose/kilogram body weight. To minimize stress during the procedure, rats were handled by the same operator during acclimatization and later during weighing and IPGTT. Blood samples (approximately 30 μl) were collected at baseline and then again 15, 30, 45, 60, 90, and 120 minutes following i.p. glucose. BG concentrations were measured immediately on these samples and the remainder processed.

human islets = test: Glucose-stimulated insulin secretion of purified human cadaveric islets ex vivo; type: cell-based; conditions: stimulation by high concentrations of glucose
Protocol: Human islet tissue and glucose-stimulated insulin secretion. The islet tissue used in these studies was obtained with institutional review board approval. Pancreas digestion and islet isolation were performed using minor modifications of the Edmonton purification protocol. (Shapiro, […] al. “Islet […] in seven patients with type I diabetes mellitus using a glucocortoid-free immunosuppressive regimen.” New England Journal of Medicine 343(4):230-8, (2000)) The determination of islet cell mass, viability, and purity were also performed. Purified islets were cultured in CMRL 1066 culture media with 10% fetal bovine serum at 37° C. in humidified air (5% CO2) for 18 to 24 hours. The human islet insulin secretory response was performed according to a procedure described by the Edmonton group. (Id.) Briefly, after an overnight culture, islets were incubated with either low or high concentrations of glucose for 2 hours at 37° C. and 5% CO2. The supernatant was collected for insulin measurement. Insulin concentrations in these experiments were analyzed with a human insulin enzyme-linked immunosorbent assay (ELISA) kit (ALPCO Insulin ELISA kit, Windham, N.H.). In some experiments TBZ, DTBZ or epinephrine was added to the cultures before glucose stimulation.

Lewis rats [2] = test: IPGTT after 2 mg/kg i.v. of VMAT2 ligands (FIG. 10); type: in vivo, rat; conditions: 2 mg/kg body weight i.v.; for blood glucose levels during IPGTT: around sixty minutes following glucose challenge; for area under the curve in the IPGTT: following glucose challenge; for blood glucose excursion during IPGTT: vs vehicle (DMSO)
Protocol: Experimental animals. All animal studies were conducted as described in Example 1.
Anaesthetized rats were administered TBZ, THB, butamol, reserpine, emetine, or Compound 6 at a dose of approximately 2-3 mg/kg body weight by intravenous (i.v.) injection using the penile vein. TBZ, THB, butamol, reserpine, emetine, and Compound 6 were each separately dissolved in neat sterile dimethylsulfoxide (DMSO) and diluted (always more than 10 fold) in sterile saline. Rats received injections of vehicle alone (10% DMSO in saline) or reserpine (in saline). Animals recovered fully before receiving IPGTT.
(§1) Blood glucose, insulin, glucagon and intraperitoneal glucose tolerance tests measurements. Blood samples were collected from a superficial blood vessel in the tails of the rats following 6 hours of fasting between 12:00 noon and 2:00 p.m. The fasting blood glucose (BG) levels of the rats were measured using an Accu-Check blood glucose monitoring system (Roche Diagnostics, Sommerville, N.J.). Intraperitoneal glucose tolerance tests (IPGTT) were performed in 6 hour fasting un-anaesthetized animals. Briefly, after baseline BG measurements, animals received an intraperitoneal (i.p.) injection of 1 gram glucose/kilogram body weight. To minimize stress during the procedure, rats were handled by the same operator during acclimatization and later during weighing and IPGTT. Blood samples (approximately 30 μl) were collected at baseline and then again 15, 30, 45, 60, 90, and 120 minutes following i.p. glucose. BG concentrations were measured immediately on these samples and the remainder processed.

Lewis rats [3] = test: Intraperitoneal glucose tolerance test (IPGTT) in normal Lewis rats after a single i.v. dose; type: in vivo, rat; conditions: 25 μg/gbm, single concentration; data not shown
Protocol: Experimental animals. All animal studies were reviewed and approved by the Institutional Animal Care and Use Committee (IACUC) at Columbia University's Medical School. All experiments were performed in accordance with the IACUC approved procedures. Normal male Lewis rats (100-400 grams) were obtained from Taconic (Taconic Inc., Germantown, N.Y.) and were housed under conditions of controlled humidity (55±5%), temperature (23±1° C.), and lighting (light on: 06.00-18.00 hours) with free access to standard laboratory rat chow and water. Rats were handled daily to minimize nonspecific stress for more than 7 days before the experiments began. In most experiments, it was necessary to measure blood glucose in fasting animals. For these groups, food was removed at the beginning of the light cycle, 6 hours before glucose levels were measured. Diabetes mellitus was induced by intraperitoneal injection of streptozotocin (Sigma Chemical Co., St. Louis, Mo.) (25 to 50 mg/kg) to animals (100 to 150 grams) that had been fasted 4 hours to enhance the effectiveness of STZ treatment.
The STZ solution was prepared fresh by dissolving it in 0.1 M citrate buffer (pH 5.5) and terminally sterile filtered. Control Lewis age and weight matched rats received a 0.5 ml/kg citrate vehicle alone via intraperitoneal injection. Sixty minutes prior to intraperitoneal glucose tolerance testing (IPGTT), anesthesia of male Lewis rats was induced with isoflurane (3-4% in oxygen) and maintained with 1-2% isoflurane in oxygen. Anaesthetized rats were administered TBZ at the indicated dose by intravenous (i.v.) injection using the penile vein. TBZ was dissolved in neat sterile dimethylsulfoxide (DMSO) and diluted (always more than 10 fold) in sterile saline. Rats received injections of vehicle alone (10% DMSO in saline) or reserpine (in saline). Animals recovered fully before receiving IPGTT.
as §1, with “30,” for “30, 45,”, “glucose administration.” for “glucose.”
Plasma was immediately separated by centrifugation at 3000×g for 15 minutes and then stored at −20° C. until analysis. Insulin and glucagon concentration measurements in rat plasma were performed by ELISA as per the manufacturer's instructions using kits from Linco Research Inc. (St. Charles, Mo.) and Alpco Diagnostics (Salem, N.H.), respectively. To validate the test, saline injections were performed by the same method. […] The area under the IPGTT glucose concentration×time curve (AUCIPGTT) was calculated by the trapezoidal rule. The area under the insulin or glucagon concentration×time curve (AUC INS or AUC GCG) was calculated in a similar manner.

Compound | blood glucose levels during IPGTT (Lewis rats [2]) | area under the curve in the IPGTT (Lewis rats [2]) | blood glucose excursion during IPGTT (Lewis rats [2]) | also measured
COc1cc2c(cc1OC)C1CC(N)C(CC(C)C)CN1CC2 (stereo not drawn) [Compound 6, 3-isobutyl-9,10-dimethoxy-2,3,4,6,7,11b-hexahydro-1H-pyrido[2,1-a]isoquinolin-2-amine] |  |  |  | blood glucose excursion during IPGTT (Lewis rats [1]): consistently reduced the blood glucose excursion; area under the curve from IPGTT (Lewis rats [1]): depress the area under the curve; also recorded: consistently suppressed the area under the curve
COc1cc2c(cc1OC)[C@H]1C[C@@H](O)[C@H](CC(C)C)CN1CC2 [DTBZ, dihydrotetrabenazine] |  |  |  | insulin secreted by human islets in culture (human islets): enhances glucose-stimulated insulin secretion; also recorded: significantly enhanced
COc1ccc2c(c1OC)CN1CCc3cc4c(cc3C1C2)OCO4 (stereo not drawn) [THB, tetrahydroberberine] | returned to control or near normal levels | smaller area under the curve | reduced the blood glucose excursion | 
CC(C)(C)NCC(O)c1ccc(O)c(CO)c1 (stereo not drawn) [butamol] | returned to control or near normal levels | smaller area under the curve | does not reduce the blood glucose excursion; also recorded: did not reduce the blood glucose excursion | 
CC[C@H]1CN2CCc3cc(OC)c(OC)cc3[C@@H]2C[C@@H]1C[C@H]1NCCc2cc(OC)c(OC)cc21 [emetine] | returned to control or near normal levels | smaller area under the curve | reduced the blood glucose excursion | blood glucose excursion during IPGTT (Lewis rats [1]): consistently reduced the blood glucose excursion; area under the curve from IPGTT (Lewis rats [1]): consistently suppressed the area under the curve; area under the curve from IPGTT (Lewis rats [1]; listed as emitine): depress the area under the curve
CNC[C@H](O)c1ccc(O)c(O)c1 [epinephrine, L-epinephrine bitartrate] |  |  |  | insulin secreted by human islets in culture (human islets): inhibited secretion of insulin
COC(=O)[C@H]1[C@H]2C[C@@H]3c4[nH]c5cc(OC)ccc5c4CCN3C[C@H]2C[C@@H](OC(=O)c2cc(OC)c(OC)c(OC)c2)[C@@H]1OC [reserpine] | returned to control or near normal levels | smaller area under the curve | reduced the blood glucose excursion | AUC IPGTT relative to untreated controls (Lewis rats [3]): larger AUC IPGTT; blood glucose in IPGTT (Lewis rats [3]): persistent hyperglycemia
